The text below walks through data of patent US20080306054A1, “Pharmaceutical Compounds” (ASTEX THERAPEUTICS LIMITED, priority 2005, published 2008).

For one test, the system named is HCT116 cell line. The test is described as follows: Anti-proliferative activity, Alamar Blue assay. As to conditions: HCT-116, human colon cancer cell line HCT116, 72 hours with compound, read-out: IC50 values against the HCT116 cell line. Format: cell-based. How it is done: The anti-proliferative activities of compounds of the invention can be determined by measuring the ability of the compounds to inhibition of cell growth in a number of cell lines such as the human colon cancer cell line HCT116. Inhibition of cell growth is measured using the Alamar Blue assay (Nociari, M. M, Shalev, A., Benias, P., Russo, C. Journal of Immunological Methods 1998, 213, 157-167). The method is based on the ability of viable cells to reduce resazurin to its fluorescent product resorufin. For each proliferation assay cells are plated onto 96 well plates and allowed to recover for 16 hours prior to the addition of inhibitor compounds for a further 72 hours. At the end of the incubation period 10% (v/v) Alamar Blue is added and incubated for a further 6 hours prior to determination of fluorescent product at […]. In the case of the non-proliferating cell assay cells are maintained at confluence for 96 hour prior to the addition of inhibitor compounds for a further 72 hours. The number of viable cells is determined by Alamar Blue assay as before. Cell lines can be obtained from the ECACC (European Collection of cell Cultures).
A general note: The colour change of resazurin is a common sign of viable cells or microbes.

For test [1], the target named is T1, Human Hsp90α N-terminal domain (Homo sapiens, UniProt P07900).
T1 construct: purification of the Human Hsp90α N-terminal domain were performed according to published methods; made in house
The test is described as follows: Isothermal titration calorimetry (ITC). Particulars: pH 7.4. Format: binding. The method, then: The ability of the compounds of the invention to bind to human Hsp90 proteins was determined using isothermal titration calorimetry.
Isothermal titration calorimetry (ITC) experiments were performed with a VP-ITC titration calorimeter (Microcal Inc., Northampton, Mass., USA). […] All solutions were filtered and degassed prior to a titration being carried out. The enthalpy change resulting from each injection of ligand was obtained through integration of the calorimetric signal. Data were analysed using Origin 7.0 (Microcal Software Inc., Northampton, Mass.). Heats of dilution were estimated using the final injections of each individual titration and subtracted before data fitting. Different ITC experimental formats were employed in order to obtain compound dissociation constants (Kd's) over a wide range of affinities. […] In this type of experiment the stoichiometry parameter (N) was locked at 1 for data fitting.
(In general: In ITC the heat of successive injections is recorded.)

On to `CC(C)c1cc(C(=O)N2CC[C@@H](O)C2)c(O)cc1O` (stereo in doubt) [Example 61, (2,4-dihydroxy-5-isopropyl-phenyl)-(3-hydroxy-pyrrolidin-1yl)-methanone], for which, in the test on HCT116 cell line, the concentration for half-maximal inhibition (IC50) is less than 10 µM.
`CC(C)c1cc(C(=O)N2CCOCC2)ccc1O` [Example 20, (4-Hydroxy-3-isopropyl-phenyl)-morpholin-4-yl-methanone] gave a Kd in test [1] of less than 1 µM.
On to `CC(C)c1cc(C(=O)N2CCOCC2)c(O)cc1O` [Example 29, (2,4-Dihydroxy-5-isopropyl-phenyl)-morpholin-4-yl-methanone], for which the Kd in test [1] was less than 1 µM.
Regarding `CC(C)(C)c1cc(C(=O)N2CCC(O)(c3ccccc3)CC2)ccc1O` [Example 37, (3-tert-Butyl-4-hydroxy-phenyl)-(4-hydroxy-4-phenyl-piperidin-1-yl)-methanone], in the test on HCT116 cell line, the half-maximal inhibitory concentration (IC50) was less than 10 µM.
`CC(C)(C)c1cc(C(=O)N2CCOCC2)c(O)cc1O` [Example 54, (5-tert-Butyl-2,4-dihydroxy-phenyl)-morpholin-4-yl-methanone]: the IC50 in the test with HCT116 cell line is less than 10 µM. The Kd in test [1] is less than 1 µM.
The like results for `CC(C)c1cc(C(=O)N2CCOC(CO)C2)c(O)cc1O` (stereo not shown) [Example 55, (2,4-dihydroxy-5-isopropyl-phenyl)-(2-hydroxymethyl-morpholin-4yl)-methanone] were, in that order, less than 10 µM and less than 1 µM.
Taken in the same sequence, the figures for `CC(C)c1cc(C(=O)N2CCN(CCN(C)C)CC2)c(O)cc1O` [Example 56, (2,4-dihydroxy-5-isopropyl-phenyl)-[4-(2-dimethylamino-ethyl)-piperazin-1-yl]-methanone] were less than 10 µM and less than 1 µM.
The like results for `CC(C)c1cc(C(=O)N2CCC(CCO)CC2)c(O)cc1O` [Example 57] were, in that order, less than 10 µM and less than 1 µM.
Consider `CC(C)c1cc(C(=O)N2CCC(CO)CC2)c(O)cc1O` [Example 58, (2,4-dihydroxy-5-isopropyl-phenyl)-(4-hydroxymethyl-piperidin-yl)-methanone], for which the IC50 in the test with HCT116 cell line is less than 10 µM.
Consider `CC1CN(C(=O)c2cc(C(C)C)c(O)cc2O)CC(C)O1` (stereo not shown) [Example 59, (2,4-dihydroxy-5-isopropyl-phenyl)-(2,6-dimethyl-morpholin-4-yl)-methanone], for which the IC50 with HCT116 cell line is less than 10 µM.
Still for that read-out and setting: under `CCOC(=O)CC1CCN(C(=O)c2cc(C(C)C)c(O)cc2O)CC1` [Example 60, [1-(2,4-dihydroxy-5-isopropyl-benzoyl)-piperidin-4-yl)-acetic acidethyl ester] stands less than 10 µM.
For `CNC(=O)CN(C(=O)c1cc(C(C)C)c(O)cc1O)c1ccc(F)cc1` [Example 62, N-(4-fluoro-phenyl)-2,4-dihydroxy-5-isopropyl-N-methylcarbamoylmethyl-benzamide], in the test on HCT116 cell line, the half-inhibitory concentration (IC50) is less than 10 µM.
As to `CNC(=O)CN(C(=O)c1cc(C(C)C)c(O)cc1O)c1ccc(CN2CCOCC2)cc1` [Example 63, 2,4-dihydroxy-5-isopropyl-N-methylcarbamoylmethyl-N-(4-morpholin-4-ylmethyl-phenyl)-benzamide], the IC50 in the test on HCT116 cell line was less than 10 µM.
Regarding `CC(C)c1cc(C(=O)N(C)c2ccc(CN3CCOCC3)cc2)c(O)cc1O` [Example 64, 2,4-dihydroxy-5-isopropyl-N-methyl-N-(4-morpholin-4-yl-methyl-phenyl)-benzamide], the IC50 with HCT116 cell line is less than 10 µM.
With `CC(C)c1cc(C(=O)N(Cc2ccccc2)c2ccc(CN3CCOCC3)cc2)c(O)cc1O` [Example 65, N-benzyl-2,4-dihydroxy-5-isopropyl-N-(4-morpholin-4-ylmethyl-phenyl)-benzamide], the 50% inhibitory concentration (IC50) in the test on HCT116 cell line is less than 10 µM. The Kd in test [1] was less than 1 µM.
Take `CC(C)c1cc(C(=O)N2CCN(C)CC2)c(O)cc1O` [Example 66, (2,4-dihydroxy-5-isopropyl-phenyl)-(4-methyl-piperazin-1-yl)-methanone]: the concentration for half-maximal inhibition (IC50) with HCT116 cell line was less than 10 µM.
On to `CC(C)c1cc(C(=O)N2CCS(=O)(=O)CC2)c(O)cc1O` [Example 68, (2,4-dihydroxy-5-isopropyl-phenyl)-(1,1-dioxo-1lambda*6*-thiomorpholin-4-yl)-methanone], for which the concentration for half-maximal inhibition (IC50) in the test on HCT116 cell line was less than 10 µM.
For `CC(C)c1cc(C(=O)N2CCN(C(=O)OC(C)(C)C)CC2)c(O)cc1O` [Example 69, 4-(2,4-dihydroxy-5-isopropyl-benzoyl)-piperazine-1-carboxylic acidtert-butyl ester], the IC50 with HCT116 cell line was less than 10 µM.
Take `CC(C)c1cc(C(=O)N(C)c2ccc(F)cc2)c(O)cc1O` [Example 70, N-(4-fluoro-phenyl)-2,4-dihydroxy-5-isopropyl-N-methyl-benzamide]: the concentration for half-maximal inhibition (IC50) in the test on HCT116 cell line was less than 10 µM.
With `CCN(C(=O)c1cc(C(C)C)c(O)cc1O)c1ccc(F)cc1` [Example 71, N-ethyl-N-(4-fluoro-phenyl)-2,4-dihydroxy-5-isopropyl-benzamide], the IC50 in the test on HCT116 cell line is less than 10 µM.
Same read-out and setting: under `CC(C)c1cc(C(=O)N(CCC#N)c2ccc(F)cc2)c(O)cc1O` [Example 72, N-(2-cyano-ethyl)-N-(4-fluoro-phenyl)-2,4-dihydroxy-5-isopropyl-benzamide] stands less than 10 µM.
Consider `CC(C)c1cc(C(=O)N(c2ccc(F)cc2)C2CCOCC2)c(O)cc1O` [Example 73, N-(4-fluoro-phenyl)-2,4-dihydroxy-5-isopropyl-N-(tetrahydro-pyran-4-yl)-benzamide], for which, in the test on HCT116 cell line, the IC50 is less than 10 µM. In test [1], this compound yielded a Kd of less than 1 µM.

One may read the IC50 as the midpoint of a concentration-inhibition curve. In general, Kd refers to a measure of binding affinity in units of concentration.
